The experiment concerns HCoV-OC43. Kind of experiment: Test Example 2: CPE inhibition in HCoV-OC43 infected BHK-21 cells, single or combination use. The experiment is classed as cell-based, Human coronavirus (HCoV-OC43).
Where [1] appears, read: Betacoronavirus 1, OC43, BHK-21, read-out: CPE inhibition rate.

As to `NC(=O)c1nc(F)cnc1O` [T-705, favipiravir], the CPE inhibition rate (single use of 1000 μM of T-705, BHK-21 cells) worked out at 79%.
On to `CCC(CC)COC(=O)[C@H](C)N[P@](=O)(OC[C@H]1O[C@@](C#N)(c2ccc3c(N)ncnn23)[C@H](O)[C@@H]1O)Oc1ccccc1` [remdesivir], for which, under setting [1], the inhibition at 0.1 µM stood at 51% and the inhibition at 0.3 µM came to 80%.
